Laboratory results published in ChEMBL document CHEMBL3045835, “Comparative study of conventional and microwave-assisted synthesis of some Schiff bases and their potential as antimicrobial agents” (2012).
In brackets after ≈: the same amount, converted by molar mass.

Assays:
Format in all cases: functional
Escherichia coli [1] = test: Antibacterial activity against Escherichia coli MTCC 1573 after 24 hr by broth dilution method; settings: MTCC 1573, 24 h
Escherichia coli [2] = test: Antibacterial activity against Escherichia coli MTCC 1573 at 200 ug/ml after 18 hr by cup-plate method; settings: MTCC 1573, 18 h, read-out: DIZ
Micrococcus luteus [3] = test: Antibacterial activity against Micrococcus luteus MTCC 1538 at 1500 ug/ml after 18 hr by cup-plate method; settings: MTCC 1538, 18 h, read-out: DIZ
Pseudomonas fluorescens [4] = test: Antibacterial activity against Pseudomonas fluorescens MTCC 2421 at 1000 ug/ml after 18 hr by cup-plate method; settings: MTCC 2421, 18 h, read-out: DIZ
Aspergillus niger [5] = test: Antifungal activity against Aspergillus niger MTCC 2546 at 1500 ug/ml after 18 hr by cup-plate method; settings: MTCC 2546, 18 h, read-out: DIZ
Penicillium chrysogenum [6] = test: Antifungal activity against Penicillium chrysogenum MTCC 161 at 500 ug/ml after 18 hr by cup-plate method; settings: MTCC 161, 18 h, read-out: DIZ
Pseudomonas aeruginosa [7] = test: Antibacterial activity against Pseudomonas aeruginosa MTCC 424 at 500 ug/ml after 18 hr by cup-plate method; settings: MTCC 424, 18 h, read-out: DIZ
Staphylococcus aureus [8] = test: Antibacterial activity against Staphylococcus aureus MTCC 1430 after 24 hr by broth dilution method; settings: MTCC 1430, 24 h
Penicillium chrysogenum [9] = test: Antifungal activity against Penicillium chrysogenum MTCC 161 after 24 hr by broth dilution method; settings: MTCC 161, 24 h
Escherichia coli [10] = test: Antibacterial activity against Escherichia coli MTCC 1573 at 1000 ug/ml after 18 hr by cup-plate method; settings: MTCC 1573, 18 h, read-out: DIZ
Aspergillus niger [11] = test: Antifungal activity against Aspergillus niger MTCC 2546 after 24 hr by broth dilution method; settings: MTCC 2546, 24 h
Bacillus pumilus [12] = test: Antibacterial activity against Bacillus pumilus MTCC 1456 at 100 ug/ml after 18 hr by cup-plate method; settings: MTCC 1456, 18 h, read-out: DIZ
Pseudomonas aeruginosa [13] = test: Antibacterial activity against Pseudomonas aeruginosa MTCC 424 at 1500 ug/ml after 18 hr by cup-plate method; settings: MTCC 424, 18 h, read-out: DIZ
Pseudomonas fluorescens [14] = test: Antibacterial activity against Pseudomonas fluorescens MTCC 2421 at 1500 ug/ml after 18 hr by cup-plate method; settings: MTCC 2421, 18 h, read-out: DIZ
Escherichia coli [15] = test: Antibacterial activity against Escherichia coli MTCC 1573 at 500 ug/ml after 18 hr by cup-plate method; settings: MTCC 1573, 18 h, read-out: DIZ
Micrococcus luteus [16] = test: Antibacterial activity against Micrococcus luteus MTCC 1538 after 24 hr by broth dilution method; settings: MTCC 1538, 24 h
Bacillus pumilus [17] = test: Antibacterial activity against Bacillus pumilus MTCC 1456 at 1500 ug/ml after 18 hr by cup-plate method; settings: MTCC 1456, 18 h, read-out: DIZ
Staphylococcus aureus [18] = test: Antibacterial activity against Staphylococcus aureus MTCC 1430 at 1000 ug/ml after 18 hr by cup-plate method; settings: MTCC 1430, 18 h, read-out: DIZ
Bacillus subtilis [19] = test: Antibacterial activity against Bacillus subtilis MTCC 441 at 1500 ug/ml after 18 hr by cup plate method; settings: MTCC 441, 18 h, read-out: DIZ
Pseudomonas fluorescens [20] = test: Antibacterial activity against Pseudomonas fluorescens MTCC 2421 at 100 ug/ml after 18 hr by cup-plate method; settings: MTCC 2421, 18 h, read-out: DIZ
Bacillus subtilis [21] = test: Antibacterial activity against Bacillus subtilis MTCC 441 at 500 ug/ml after 18 hr by cup plate method; settings: MTCC 441, 18 h, read-out: DIZ
Aspergillus niger [22] = test: Antifungal activity against Aspergillus niger MTCC 2546 at 1000 ug/ml after 18 hr by cup-plate method; settings: MTCC 2546, 18 h, read-out: DIZ
Pseudomonas aeruginosa [23] = test: Antibacterial activity against Pseudomonas aeruginosa MTCC 424 at 1000 ug/ml after 18 hr by cup-plate method; settings: MTCC 424, 18 h, read-out: DIZ
Bacillus subtilis [24] = test: Antibacterial activity against Bacillus subtilis MTCC 441 after 24 hr by broth dilution method; settings: MTCC 441, 24 h
Micrococcus luteus [25] = test: Antibacterial activity against Micrococcus luteus MTCC 1538 at 1000 ug/ml after 18 hr by cup-plate method; settings: MTCC 1538, 18 h, read-out: DIZ
Penicillium chrysogenum [26] = test: Antifungal activity against Penicillium chrysogenum MTCC 161 at 200 ug/ml after 18 hr by cup-plate method; settings: MTCC 161, 18 h, read-out: DIZ
Bacillus pumilus [27] = test: Antibacterial activity against Bacillus pumilus MTCC 1456 at 200 ug/ml after 18 hr by cup-plate method; settings: MTCC 1456, 18 h, read-out: DIZ

`O=c1c(/C=N/c2ccc(Cl)cc2)coc2ccccc12` was tested, and the MIC (Escherichia coli [1]) was 400 µg/mL (≈ 1410 µM), the zone of inhibition at 200 µg/mL (Escherichia coli [2]) was 16 mm and the zone of inhibition at 1500 µg/mL (Micrococcus luteus [3]) was 24 mm. For the same compound, the zone of inhibition at 1000 µg/mL (Pseudomonas fluorescens [4]) was 16 mm, the zone of inhibition at 1500 µg/mL (Aspergillus niger [5]) was 21 mm and the zone of inhibition at 500 µg/mL (Penicillium chrysogenum [6]) was 19 mm. For the same compound, the zone of inhibition at 500 µg/mL (Pseudomonas aeruginosa [7]) was 19 mm, the MIC (Staphylococcus aureus [8]) was 300 µg/mL (≈ 1060 µM) and the MIC (Penicillium chrysogenum [9]) was 200 µg/mL (≈ 705 µM). For the same compound, the zone of inhibition at 1000 µg/mL (Escherichia coli [10]) was 19 mm, the MIC (Aspergillus niger [11]) was 200 µg/mL (≈ 705 µM) and the zone of inhibition at 100 µg/mL (Bacillus pumilus [12]) was 12 mm. It also gave a zone of inhibition at 1500 µg/mL (Pseudomonas aeruginosa [13]) of 21 mm, a zone of inhibition at 1500 µg/mL (Pseudomonas fluorescens [14]) of 18 mm and a zone of inhibition at 500 µg/mL (Escherichia coli [15]) of 17 mm. The MIC (Micrococcus luteus [16]) was 200 µg/mL (≈ 705 µM), the zone of inhibition at 1500 µg/mL (Bacillus pumilus [17]) was 19 mm and the zone of inhibition at 1000 µg/mL (Staphylococcus aureus [18]) was 18 mm. It also gave a zone of inhibition at 1500 µg/mL (Bacillus subtilis [19]) of 21 mm, a zone of inhibition at 100 µg/mL (Pseudomonas fluorescens [20]) of 11 mm and a zone of inhibition at 500 µg/mL (Bacillus subtilis [21]) of 17 mm. For the same compound, the zone of inhibition at 1000 µg/mL (Aspergillus niger [22]) was 20 mm, the zone of inhibition at 1000 µg/mL (Pseudomonas aeruginosa [23]) was 20 mm and the MIC (Bacillus subtilis [24]) was 300 µg/mL (≈ 1060 µM). The zone of inhibition at 1000 µg/mL (Micrococcus luteus [25]) was 23 mm, the zone of inhibition at 200 µg/mL (Penicillium chrysogenum [26]) was 17 mm and the zone of inhibition at 200 µg/mL (Bacillus pumilus [27]) was 15 mm.
